Source: the supplement of paper PMC10307832

Legend:
Assay in all cases: relative viability (nuclei count vs DMSO), 5 days (fraction); higher = more cells survive
[1] = compound: COC1=C(C=C(C=C1)C2=CC3=NC=CN3C(=N2)NC4=C(C=CC=N4)C(=O)N)OC [BAY61-3606] + COc1cccc2cc(-c3nc([C@H]4CC[C@H](C(=O)O)CC4)n4ncnc(N)c34)[nH]c12 [OSI-027] (partner 0.5 µM)
Method in brief: (§1)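 Values are medians from duplicate plates. Each reflects relative viability, defined as the nuclei count of treated wells over that of vehicle wells. Lung cancer cell lines in 1536-well plates were pin-tool dosed one day after seeding with one drug alone or with a fixed anchor-drug dose plus five library-drug doses (not always all listed) in √10 steps, then fixed, stained and imaged at 4× after 5 days.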

[2] = compound: COc1cccc2c1C(=O)c1c(O)c3c(c(O)c1C2=O)C[C@@](O)(C(=O)CO)C[C@@H]3O[C@H]1C[C@H](N)[C@H](O)[C@H](C)O1 [Doxorubicin] + C[C@]1(O)C[C@@H](c2nc(-c3ccc4ccc(-c5ccccc5)nc4c3)c3c(N)nccn32)C1 [Linsitinib] (partner 1 µM)
Method in brief: as §1

[3] = compound: COC1=C(C=C(C=C1)C2=CC3=NC=CN3C(=N2)NC4=C(C=CC=N4)C(=O)N)OC [BAY61-3606] + O=C(CCCCCCC(=O)Nc1ccccc1)NO [Vorinostat] (partner 1 µM)
Method in brief: as §1

[4] = compound: COc1cccc2c1C(=O)c1c(O)c3c(c(O)c1C2=O)C[C@@](O)(C(=O)CO)C[C@@H]3O[C@H]1C[C@H](N)[C@H](O)[C@H](C)O1 [Doxorubicin] + CC1(C)CCC(c2ccc(Cl)cc2)=C(CN2CCN(c3ccc(C(=O)NS(=O)(=O)c4ccc(N[C@H](CCN5CCOCC5)CSc5ccccc5)c(S(=O)(=O)C(F)(F)F)c4)cc3)CC2)C1 [Navitoclax] (partner 0.5 µM)
Method in brief: as §1

Cell Line | relative viability ([1]; first compound 0.02 µM) | relative viability ([1]; first compound 0.06325 µM) | relative viability ([1]; first compound 0.2 µM) | relative viability ([1]; first compound 0.6325 µM) | relative viability ([1]; first compound 2 µM) | relative viability ([2]; first compound 0.001 µM) | relative viability ([2]; first compound 0.003162 µM) | relative viability ([2]; first compound 0.01 µM) | relative viability ([2]; first compound 0.03162 µM) | relative viability ([2]; first compound 0.1 µM) | relative viability ([3]; first compound 0.02 µM) | relative viability ([3]; first compound 0.06325 µM) | relative viability ([3]; first compound 0.2 µM) | relative viability ([3]; first compound 0.6325 µM) | relative viability ([3]; first compound 2 µM) | relative viability ([4]; first compound 0.001 µM) | relative viability ([4]; first compound 0.003162 µM) | relative viability ([4]; first compound 0.01 µM) | relative viability ([4]; first compound 0.03162 µM) | relative viability ([4]; first compound 0.1 µM)
LC-2-ad | 0.853 | 0.772 | 0.8 | 0.997 | 0.654 | 0.879 | 0.803 | 0.902 | 0.763 | 0.791 | 0.821 | 0.743 | 0.588 | 0.707 | 0.721 | 0.386 | 0.384 | 0.567 | 0.496 | 0.506
LCLC-97TM1 | 0.515 | 0.608 | 0.581 | 0.423 | 0.392 | 0.205 | 0.185 | 0.177 | 0.151 | 0.159 | 0.893 | 0.818 | 0.534 | 0.778 | 0.589 | 0.284 | 0.411 | 0.524 | 0.398 | 0.331
LK-2 | 0.197 | 0.16 | 0.22 | 0.231 | 0.185 | 0.524 | 0.742 | 0.409 | 0.483 | 0.627 | 0.264 | 0.297 | 0.301 | 0.327 | 0.306 | 0.894 | 0.875 | 0.889 | 0.638 | 0.804
LOU-NH91 | 0.743 | 0.725 | 0.766 | 0.719 | 0.708 | – | 0.826 | 0.953 | 0.73 | 0.7 | 1.03 | 0.796 | 0.871 | 0.915 | 0.858 | – | 0.561 | 0.711 | 0.444 | 0.405
LU99A | 0.315 | 0.271 | 0.298 | 0.26 | 0.306 | 0.521 | 0.645 | 0.526 | 0.456 | 0.575 | 0.548 | 0.399 | 0.48 | 0.434 | 0.401 | 0.783 | 0.919 | 0.867 | 0.554 | 0.801
LXF-289 | 0.938 | 0.834 | 0.687 | 0.888 | 0.825 | 0.997 | 0.968 | 0.946 | 1.04 | 0.993 | 0.802 | 0.839 | 0.666 | 0.849 | 0.782 | 0.935 | 0.939 | 0.873 | 0.983 | 0.944
NCI-H23 | 0.629 | 0.72 | 0.442 | 0.561 | 0.512 | – | 0.539 | 0.683 | 0.473 | 0.638 | 0.542 | 0.701 | 0.53 | 0.553 | 0.501 | – | 0.686 | 0.767 | 0.698 | 0.926
NCI-H322M | 0.53 | 0.592 | 0.562 | 0.582 | 0.47 | 0.986 | 0.913 | 0.982 | 0.974 | 0.952 | 0.985 | 0.872 | 0.974 | 0.866 | 0.74 | 1.18 | 1.19 | 1.15 | 1.31 | 1.26
NCI-H441 | 0.587 | 0.713 | 0.428 | 0.557 | 0.313 | 0.697 | 0.718 | 0.513 | 0.281 | 0.513 | 0.997 | 0.88 | 0.916 | 0.803 | 0.678 | – | 0.688 | 0.351 | 0.308 | 0.423
NCI-H460 | 0.781 | 0.672 | 0.657 | 0.467 | 0.214 | 0.714 | 0.687 | 0.385 | 0.0347 | 0.0076 | 0.786 | 0.862 | 0.709 | 0.65 | 0.447 | 1.07 | 1.18 | 0.945 | 0.0444 | 0.0158
NCI-H520 | 0.247 | 0.364 | 0.364 | 0.296 | 0.212 | 0.888 | 0.986 | 0.826 | 0.698 | 0.73 | 0.768 | 0.861 | 0.624 | 0.71 | 0.638 | 1.06 | 1.29 | 1.02 | 0.886 | 1
NCI-H596 | 0.699 | 0.535 | 0.647 | 0.711 | 0.462 | 1.01 | 1.12 | 1.09 | 1.01 | 0.992 | 0.726 | 0.568 | 0.514 | 0.771 | 0.686 | 0.931 | 0.963 | 0.903 | 0.832 | 0.972
NCI-H647 | 0.648 | 0.567 | 0.691 | 0.423 | 0.277 | 0.977 | 1.17 | 0.952 | 0.441 | 0.435 | 0.598 | 0.566 | 0.441 | 0.529 | 0.287 | 1.17 | 1.4 | 0.992 | 0.65 | 0.517
NCI-H727 | 0.604 | 0.559 | 0.71 | 0.688 | 0.513 | 0.275 | 0.323 | 0.304 | 0.251 | 0.455 | 1.03 | 1.12 | 1.07 | 1.17 | 1.24 | 0.402 | 0.474 | 0.492 | 0.462 | 0.455
NCI-H838 | 0.456 | 0.36 | 0.429 | 0.411 | 0.298 | 1.04 | 1.04 | 0.952 | 0.906 | 0.446 | 0.743 | 0.74 | 0.7 | 0.652 | 0.553 | 1.12 | 1.17 | 1.12 | 0.905 | 0.423
NCI-H1355 | 0.409 | 0.329 | 0.374 | 0.377 | 0.286 | 0.793 | 0.862 | 0.81 | 0.872 | 0.785 | 0.722 | 0.617 | 0.574 | 0.645 | 0.604 | 0.982 | 1.1 | 0.911 | 0.904 | 1.06
